Results on 1 molecule are retold here after paper PMC7150891, “Mertansine Inhibits mRNA Expression and Enzyme Activities of Cytochrome P450s and Uridine 5′-Diphospho-Glucuronosyltransferases in Human Hepatocytes and Liver Microsomes” (Pharmaceutics, 2020).

The test system of data set [1] is CYP1A2 mRNA (suppression of expression). The experiment in a line: CYP1A2 mRNA level in human hepatocytes after 48 h treatment (RT-PCR). The class given is cell-based. As to conditions: 1.25–2500 nM. From the text:
12.5 (Systat Software, Inc.; San Jose, CA, USA). […] 1.1 (Systat Software, Inc.).

The subject of data set [2] is CYP1A2. The experiment in a line: CYP1A2-catalyzed phenacetin O-deethylase activity in human hepatocytes after 48 h treatment. On the procedure: Samples were incubated for 48 h at 37 °C in 5% CO2, and the medium was exchanged with 250 μL of fresh medium containing drugs or the vehicle every 24 h.
The effects of mertansine on CYP1A2, CYP2B6, and CYP3A4 activities were evaluated. […] Mixtures were vortexed for 2 min and then centrifuged at 13,000 g for 4 min at 4 °C. The supernatant (40 µL) was diluted with 60 µL of deionized water and then mixed for 2 min by vortexing. An aliquot (5 µL) was analyzed using LC-MS/MS [37], and CYP1A2, CYP2B6, and CYP3A4 enzyme activities were expressed as formation rates (pmol/million cells/min).
The percentage changes in enzymatic activities were calculated as (CYP activity with test compound treatment/CYP activity with vehicle control treatment) × 100. The IC50 (the concentration of the inhibitor needed for half-maximal inhibition) values were calculated using SigmaPlot ver. […] Ki (the inhibition constant) and the inhibition mode of UGT1A1, UGT1A3, and UGT1A4 activities were determined using Enzyme Kinetics ver. 1.1 (Systat Software, Inc.).

Data set [3] in a line: MTS colorimetric cytotoxicity assay in human hepatocytes. Type of data set: cell-based. As to conditions: human hepatocytes (lot 319), 48 h mertansine treatment (1.25–6250 nM), lot 319, MTS. How it is done:
The hepatocytes were incubated with 0.0125, 0.0625, 0.125, 0.250, 0.625, 1.25, 2.5, and 6.25 μM mertansine in triplicate for 48 h at 37 °C in 5% CO2. The medium was exchanged with fresh medium containing mertansine every 24 h. Then, 20 μL of MTS solution was added to each well and the plate was incubated for 1 h at 37 °C in 5% CO2. The absorbance of the reaction mixture was measured at 492 nm.
(In general: Tetrazolium assays rely on reduction of a dye to a coloured formazan, in cell work by metabolically active cells.)

The test system of data set [4] is CYP2C8. The arrangement: method as in PMID 25048520, PMID 22752008. As to conditions: human liver microsomes, competitive; read-out: Ki, CYP2C8-mediated paclitaxel 6α-hydroxylation; cited from earlier work. For orientation: Liver microsomes are vesicles of endoplasmic reticulum, rich in cytochrome P450 enzymes.
Data set [5] concerns CYP3A4 mRNA. The experiment in a line: in vitro. As to conditions: human, hepatocytes, IC50, suppression of CYP3A4 mRNA expression, 1.25–2500 nM.
[6] abbreviates: Mean ± SD of three human hepatocyte lots, 48 h.
[7] abbreviates: human hepatocytes Lot 319, 48 h.
Where [8] appears, read: human hepatocytes Lot 321, 48 h.
[9] abbreviates: human hepatocytes Lot 361, 48 h.

As for `COc1cc2cc(c1Cl)N(C)C(=O)CC(OC(=O)C(C)N(C)C(=O)CCS)C1(C)OC1C(C)C1CC(O)(NC(=O)O1)C(OC)C=CC=C(C)C2` (stereo not drawn) [mertansine, Mertansine], the IC50 at 48 h in data set [1] (setting [6]) was determined as 0.0937 ± 0.109 µM; in data set [1] (setting [7]), 0.22 µM; in data set [1] (setting [8]), 0.0343 µM; in data set [1] (setting [9]), 0.0273 µM. In addition, in data set [2] (highest concentration (2500 nM), 48 h, mean of three human hepatocytes), the “Mean decrease of CYP1A2-mediated phenacetin O-deethylase activity” value is given as 48.3%. Moreover, the “Decrease of CYP1A2-mediated phenacetin O-deethylase activity compared to vehicle” value in data set [2] (mertansine 48 h, three human hepatocytes) was 27.8–79.0%. Besides, in data set [3], the viability at 48 h was over 96.2%. Moreover, in data set [4], the Ki is 11 µM. Moreover, the IC50 in data set [5] (setting [6]) was determined as 0.161 ± 0.167 µM; in data set [5] (setting [7]) it was 0.345 µM; in data set [5] (setting [8]), 0.12 µM; in data set [5] (setting [9]) it was 0.0168 µM.

As usually defined, the IC50 is the concentration at which inhibition is half-maximal. Read a low IC50 as greater potency in that assay. Broadly, the viability is the share of living cells, or the viability signal relative to a control. A low value points to a greater loss of cells. Broadly, the Ki is a measure of affinity in units of concentration, obtained from inhibition or displacement.
